Measurements as given in ChEMBL document CHEMBL3525963, “Tissue distribution and elimination of [14C]apixaban in rats” (Drug Metab Dispos, 2011).

Tests used:
[1] = Drug level in urine of Sprague-Dawley rat treated with [14C]apixaban at 30 mg/kg, po assessed as compound level by HPLC method; conditions: in vivo
[2] = Drug level in feces of Sprague-Dawley rat treated with [14C]apixaban at 30 mg/kg, po assessed as compound level by HPLC method; conditions: in vivo

## NC(=O)c1nn(-c2ccc(O)cc2)c2c1CCN(c1ccc(N3CCCC[14C]3=O)cc1)C2=O
[1]
  Compound recovery: 2%
[2]
  Compound recovery: 13%
